Calls of active or inactive are those of the source. How the calls were made is not given here.
System: CCRIS mutagenicity, Ames/micronucleus/aberration tests
Assay: CCRIS mutagenicity studies
[1] = Test System: AMES SALMONELLA TYPHIMURIUM, Strain/Indicator: TA98, Metabolic Activation: NONE, Method: PREINCUBATION
[2] = Test System: AMES SALMONELLA TYPHIMURIUM, Strain/Indicator: TA100, Metabolic Activation: NONE, Method: PREINCUBATION
[3] = Test System: AMES SALMONELLA TYPHIMURIUM, Strain/Indicator: TA1535, Metabolic Activation: NONE, Method: PREINCUBATION
[4] = Test System: AMES SALMONELLA TYPHIMURIUM, Strain/Indicator: TA98, Metabolic Activation: NONE, Method: STANDARD PLATE
[5] = Test System: AMES SALMONELLA TYPHIMURIUM, Strain/Indicator: TA98, Metabolic Activation: RAT, LIVER, S-9, AROCLOR 1254, Method: STANDARD PLATE
[6] = Test System: AMES SALMONELLA TYPHIMURIUM, Strain/Indicator: TA100, Metabolic Activation: NONE, Method: STANDARD PLATE
[7] = Test System: AMES SALMONELLA TYPHIMURIUM, Strain/Indicator: TA100, Metabolic Activation: RAT, LIVER, S-9, AROCLOR 1254, Method: STANDARD PLATE
[8] = Test System: AMES SALMONELLA TYPHIMURIUM, Strain/Indicator: TA1535, Metabolic Activation: NONE, Method: STANDARD PLATE

Clc1ccc2ccccc2c1
mutagenic call (Test System: AMES SALMONELLA TYPHIMURIUM, Strain/Indicator: TA97, Metabolic Activation: HAMSTER, LIVER, S-9, AROCLOR 1254 (10 OR 30%), Method: PREINCUBATION): inactive; negative
mutagenic call (Test System: AMES SALMONELLA TYPHIMURIUM, Strain/Indicator: TA97, Metabolic Activation: NONE, Method: PREINCUBATION): inactive; negative
mutagenic call (Test System: AMES SALMONELLA TYPHIMURIUM, Strain/Indicator: TA97, Metabolic Activation: RAT, LIVER, S-9, AROCLOR 1254 (10 OR 30%), Method: PREINCUBATION): inactive; negative
mutagenic call (Test System: AMES SALMONELLA TYPHIMURIUM, Strain/Indicator: TA98, Metabolic Activation: HAMSTER, LIVER, S-9, AROCLOR 1254 (10%), Method: PREINCUBATION): inactive; negative
mutagenic call (Test System: AMES SALMONELLA TYPHIMURIUM, Strain/Indicator: TA98, Metabolic Activation: HAMSTER, LIVER, S-9, AROCLOR 1254 (30%), Method: PREINCUBATION): inactive; negative
mutagenic call [1]: inactive; negative
mutagenic call (Test System: AMES SALMONELLA TYPHIMURIUM, Strain/Indicator: TA98, Metabolic Activation: RAT, LIVER, S-9, AROCLOR 1254 (10 OR 30%), Method: PREINCUBATION): inactive; negative
mutagenic call (Test System: AMES SALMONELLA TYPHIMURIUM, Strain/Indicator: TA100, Metabolic Activation: HAMSTER, LIVER, S-9, AROCLOR 1254 (10 OR 30%), Method: PREINCUBATION): inactive; negative
mutagenic call [2]: inactive; negative
mutagenic call (Test System: AMES SALMONELLA TYPHIMURIUM, Strain/Indicator: TA100, Metabolic Activation: RAT, LIVER, S-9, AROCLOR 1254 (10 OR 30%), Method: PREINCUBATION): inactive; negative
mutagenic call (Test System: AMES SALMONELLA TYPHIMURIUM, Strain/Indicator: TA1535, Metabolic Activation: HAMSTER, LIVER, S-9, AROCLOR 1254 (10 OR 30%), Method: PREINCUBATION): inactive; negative
mutagenic call [3]: inactive; negative
mutagenic call (Test System: AMES SALMONELLA TYPHIMURIUM, Strain/Indicator: TA1535, Metabolic Activation: RAT, LIVER, S-9, AROCLOR 1254 (10 OR 30%), Method: PREINCUBATION): inactive; negative

O=C(c1ccc([N+](=O)[O-])cc1)[C@@H]1O[C@@H]1c1ccccc1
mutagenic call [4]: inactive; negative
mutagenic call [5]: inactive; negative
mutagenic call [6]: active; positive
mutagenic call [7]: active; positive

CS(=O)(=O)OC[C@H](O)[C@@H](O)COS(C)(=O)=O
mutagenic call [6]: active; positive
mutagenic call [8]: active; positive
mutagenic call (Test System: AMES SALMONELLA TYPHIMURIUM, Strain/Indicator: TA7004, Metabolic Activation: NONE, Method: STANDARD PLATE): active; positive
mutagenic call (Test System: AMES SALMONELLA TYPHIMURIUM, Strain/Indicator: TA7005, Metabolic Activation: NONE, Method: STANDARD PLATE): inactive; negative
mutagenic call (Test System: CHINESE HAMSTER OVARY, Strain/Indicator: AS52/6-THIOGUANINE, Metabolic Activation: NONE): active; positive

CN(C)CC(=O)O
mutagenic call [6]: inactive; negative
mutagenic call [7]: inactive; negative

Cc1cc2c(c3ccc4c(O)c(O)ccc4c13)CCC2=O
mutagenic call (Test System: AMES SALMONELLA TYPHIMURIUM, Strain/Indicator: TA100, Metabolic Activation: RAT, LIVER, MICROSOMES, 15,16-DIHYDRO-11-METHYL-17(H)-CYCLOPENTA[A] PHENANTHREN-17-ONE, Method: STANDARD PLATE): inactive; negative
mutagenic call (Test System: AMES SALMONELLA TYPHIMURIUM, Strain/Indicator: TA100, Metabolic Activation: RAT, LIVER, MICROSOMES, BENZO[A]PYRENE, Method: STANDARD PLATE): active; positive
mutagenic call (Test System: AMES SALMONELLA TYPHIMURIUM, Strain/Indicator: TA100, Metabolic Activation: RAT, LIVER, MICROSOMES, CLOFIBRATE, Method: STANDARD PLATE): inactive; negative
mutagenic call (Test System: AMES SALMONELLA TYPHIMURIUM, Strain/Indicator: TA100, Metabolic Activation: RAT, LIVER, MICROSOMES, DEXAMETHASONE, Method: STANDARD PLATE): inactive; negative
mutagenic call (Test System: AMES SALMONELLA TYPHIMURIUM, Strain/Indicator: TA100, Metabolic Activation: RAT, LIVER, MICROSOMES, ISONIAZID, Method: STANDARD PLATE): inactive; negative
mutagenic call (Test System: AMES SALMONELLA TYPHIMURIUM, Strain/Indicator: TA100, Metabolic Activation: RAT, LIVER, MICROSOMES, PHENOBARBITONE, Method: STANDARD PLATE): inactive; negative
mutagenic call (Test System: AMES SALMONELLA TYPHIMURIUM, Strain/Indicator: TA100, Metabolic Activation: RAT, LIVER, MICROSOMES, Method: STANDARD PLATE): inactive; negative

O=C(CCc1ccc(O)cc1)c1c(O)cc(O)cc1O
mutagenic call (Test System: AMES SALMONELLA TYPHIMURIUM, Strain/Indicator: TA98, Metabolic Activation: HAMSTER, LIVER, S-9, AROCLOR 1254, Method: STANDARD PLATE): inactive; negative
mutagenic call [4]: inactive; negative
mutagenic call [5]: inactive; negative
mutagenic call (Test System: AMES SALMONELLA TYPHIMURIUM, Strain/Indicator: TA100, Metabolic Activation: HAMSTER, LIVER, S-9, AROCLOR 1254, Method: STANDARD PLATE): inactive; negative
mutagenic call [6]: inactive; negative
mutagenic call [7]: inactive; negative
mutagenic call (Test System: AMES SALMONELLA TYPHIMURIUM, Strain/Indicator: TA1535, Metabolic Activation: HAMSTER, LIVER, S-9, AROCLOR 1254, Method: STANDARD PLATE): inactive; negative
mutagenic call [8]: inactive; negative
mutagenic call (Test System: AMES SALMONELLA TYPHIMURIUM, Strain/Indicator: TA1535, Metabolic Activation: RAT, LIVER, S-9, AROCLOR 1254, Method: STANDARD PLATE): inactive; negative
mutagenic call (Test System: AMES SALMONELLA TYPHIMURIUM, Strain/Indicator: TA1537, Metabolic Activation: HAMSTER, LIVER, S-9, AROCLOR 1254, Method: STANDARD PLATE): inactive; negative
mutagenic call (Test System: AMES SALMONELLA TYPHIMURIUM, Strain/Indicator: TA1537, Metabolic Activation: NONE, Method: STANDARD PLATE): inactive; negative
mutagenic call (Test System: AMES SALMONELLA TYPHIMURIUM, Strain/Indicator: TA1537, Metabolic Activation: RAT, LIVER, S-9, AROCLOR 1254, Method: STANDARD PLATE): inactive; negative
mutagenic call (Test System: AMES SALMONELLA TYPHIMURIUM, Strain/Indicator: TA1538, Metabolic Activation: HAMSTER, LIVER, S-9, AROCLOR 1254, Method: STANDARD PLATE): inactive; negative
mutagenic call (Test System: AMES SALMONELLA TYPHIMURIUM, Strain/Indicator: TA1538, Metabolic Activation: NONE, Method: STANDARD PLATE): inactive; negative
mutagenic call (Test System: AMES SALMONELLA TYPHIMURIUM, Strain/Indicator: TA1538, Metabolic Activation: RAT, LIVER, S-9, AROCLOR 1254, Method: STANDARD PLATE): inactive; negative

COc1cc(OC)c(Cl)c(-n2c(-c3ccccc3)cc(=O)c(C)c2-c2ccc(F)cc2)c1
mutagenic call [1]: inactive; negative
mutagenic call (Test System: AMES SALMONELLA TYPHIMURIUM, Strain/Indicator: TA98, Metabolic Activation: S-9, Method: PREINCUBATION): inactive; negative
mutagenic call [2]: inactive; negative
mutagenic call (Test System: AMES SALMONELLA TYPHIMURIUM, Strain/Indicator: TA100, Metabolic Activation: S-9, Method: PREINCUBATION): inactive; negative
mutagenic call (Test System: AMES SALMONELLA TYPHIMURIUM, Strain/Indicator: TA102, Metabolic Activation: NONE, Method: PREINCUBATION): inactive; negative
mutagenic call (Test System: AMES SALMONELLA TYPHIMURIUM, Strain/Indicator: TA102, Metabolic Activation: S-9, Method: PREINCUBATION): inactive; negative
mutagenic call [3]: inactive; negative
mutagenic call (Test System: AMES SALMONELLA TYPHIMURIUM, Strain/Indicator: TA1535, Metabolic Activation: S-9, Method: PREINCUBATION): inactive; negative
mutagenic call (Test System: AMES SALMONELLA TYPHIMURIUM, Strain/Indicator: TA1537, Metabolic Activation: NONE, Method: PREINCUBATION): inactive; negative
mutagenic call (Test System: AMES SALMONELLA TYPHIMURIUM, Strain/Indicator: TA1537, Metabolic Activation: S-9, Method: PREINCUBATION): inactive; negative
mutagenic call (Test System: E. COLI, Strain/Indicator: WP2 UVRA, Metabolic Activation: NONE, Method: PREINCUBATION): inactive; negative
mutagenic call (Test System: E. COLI, Strain/Indicator: WP2 UVRA, Metabolic Activation: S-9, Method: PREINCUBATION): inactive; negative

From PubChem BioAssay AID1259407 (Chemical Carcinogenesis Research Information System (CCRIS), 2018)
